Assay results taken from ChEMBL document CHEMBL2086253, “Synthesis and biological evaluation of cyanoguanidine derivatives of loratadine” (Bioorg Med Chem Lett, 2012).
Activity calls are given as the source filed them. No cut-off for these calls is given here.

How the values were obtained:
MCF7 [1] = assay: Cytotoxicity against human MCF7 cells after 72 hrs by crystal violet staining; assay type: functional, cell-based; details: MCF7, 72 h
MDA-MB-231 [2] = assay: Cytotoxicity against human MDA-MB-231 cells after 72 hrs by crystal violet staining; assay type: functional, cell-based; details: MDA-MB-231, 72 h
HT-29 [3] = assay: Cytotoxicity against human HT-29 cells after 72 hrs by crystal violet staining; assay type: functional, cell-based; details: HT-29, 72 h
Mus musculus [4] = assay: Antiinflammatory activity in Kunming mouse assessed as inhibition of xylene-induced ear edema at 4 mg/kg, ip for 5 days relative to control; assay type: functional; details: 120 h, route intraperitoneal
MCF7 [5] = assay: Ratio of 5-fluorouracil IC50 to compound IC50 for human MCF7 cells; assay type: functional
MDA-MB-231 [6] = assay: Ratio of 5-fluorouracil IC50 to compound IC50 for human MDA-MB-231 cells; assay type: functional
HT-29 [7] = assay: Ratio of 5-fluorouracil IC50 to compound IC50 for human HT-29 cells; assay type: functional
MCF7 [8] = assay: Ratio of loratadine IC50 to compound IC50 for human MCF7 cells; assay type: functional
MDA-MB-231 [9] = assay: Ratio of loratadine IC50 to compound IC50 for human MDA-MB-231 cells; assay type: functional
HT-29 [10] = assay: Ratio of loratadine IC50 to compound IC50 for human HT-29 cells; assay type: functional
MCF7 [11] = assay: Cytotoxicity against human MCF7 cells at 0.63 to 10 uM up to 140 hrs by crystal violet staining; assay type: functional, cell-based
HT-29 [12] = assay: Cytotoxicity against human HT-29 cells at 0.63 to 10 uM up to 140 hrs by crystal violet staining; assay type: functional, cell-based
Mus musculus [13] = assay: Antiinflammatory activity in Kunming mouse assessed as inhibition of xylene-induced ear edema at 30 mg/kg, ip for 5 days relative to control; assay type: functional; details: 120 h, route intraperitoneal
[14] = molecular target: T1, Prostaglandin G/H synthase 1 (Ovis aries) (UniProt P05979); assay: Inhibition of isolated ovine COX-1 at 10 uM by ELISA
T1 sequence (whole entry): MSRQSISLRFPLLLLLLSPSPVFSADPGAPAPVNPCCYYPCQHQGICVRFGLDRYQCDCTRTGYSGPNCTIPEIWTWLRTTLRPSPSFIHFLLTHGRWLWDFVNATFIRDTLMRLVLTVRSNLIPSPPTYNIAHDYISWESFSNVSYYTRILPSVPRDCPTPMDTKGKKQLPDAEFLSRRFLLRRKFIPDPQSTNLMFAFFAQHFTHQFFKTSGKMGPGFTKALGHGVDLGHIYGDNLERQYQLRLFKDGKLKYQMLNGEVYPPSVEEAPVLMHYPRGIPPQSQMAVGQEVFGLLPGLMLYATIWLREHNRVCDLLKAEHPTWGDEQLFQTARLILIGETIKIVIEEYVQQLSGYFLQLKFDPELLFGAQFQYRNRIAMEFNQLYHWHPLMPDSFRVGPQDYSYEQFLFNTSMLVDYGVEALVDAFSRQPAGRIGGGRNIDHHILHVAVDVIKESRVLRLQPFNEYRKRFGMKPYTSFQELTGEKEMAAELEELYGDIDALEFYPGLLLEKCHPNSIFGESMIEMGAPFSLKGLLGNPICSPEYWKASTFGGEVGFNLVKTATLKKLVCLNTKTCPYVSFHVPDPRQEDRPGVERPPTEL

N#C/N=C(/NCc1ccccc1)N1CCC(=C2c3ccc(Cl)cc3CCc3cccnc32)CC1
IC50 (MCF7 [1]): 2.9 µM
IC50 (MDA-MB-231 [2]): 2.7 µM
IC50 (HT-29 [3]): 3.1 µM
inhibition in vivo at 4 mg/kg (Mus musculus [4]): 13%

N#C/N=C(/NCCc1ccc2c(c1)OCO2)N1CCC(=C2c3ccc(Cl)cc3CCc3cccnc32)CC1
IC50 (MCF7 [1]): 8 µM
IC50 (MDA-MB-231 [2]): 12.9 µM
IC50 (HT-29 [3]): 6.5 µM
inhibition in vivo at 4 mg/kg (Mus musculus [4]): 13%

CCCCCCCCN/C(=N/C#N)N1CCC(=C2c3ccc(Cl)cc3CCc3cccnc32)CC1
IC50 (MCF7 [1]): 1.4 µM
IC50 (MDA-MB-231 [2]): 4.1 µM
IC50 (HT-29 [3]): 2 µM
Ratio IC50 (MCF7 [5]): 2
Ratio IC50 (MDA-MB-231 [6]): 2
Ratio IC50 (HT-29 [7]): 2
Ratio IC50 (MCF7 [8]): 2
Ratio IC50 (MDA-MB-231 [9]): 2
Ratio IC50 (HT-29 [10]): 2
Activity (MCF7 [11]): Active
Activity (HT-29 [12]): Active
inhibition in vivo at 4 mg/kg (Mus musculus [4]): 15.6%

O=c1[nH]cc(F)c(=O)[nH]1 [FLUOROURACIL]
IC50 (MCF7 [1]): 4.7 µM

N#C/N=C(/NC1CCCCC1)N1CCC(=C2c3ccc(Cl)cc3CCc3cccnc32)CC1
IC50 (MCF7 [1]): 3.9 µM
IC50 (MDA-MB-231 [2]): 1.9 µM
IC50 (HT-29 [3]): 4 µM
inhibition in vivo at 4 mg/kg (Mus musculus [4]): 17.4%

CC(C)Cc1ccc(C(C)C(=O)O)cc1 (centres undefined) [IBUPROFEN]
inhibition in vivo at 4 mg/kg (Mus musculus [4]): 8.22%
inhibition in vivo at 30 mg/kg (Mus musculus [13]): 39.1%

CCCCN/C(=N/C#N)N1CCC(=C2c3ccc(Cl)cc3CCc3cccnc32)CC1
IC50 (MCF7 [1]): 3.9 µM
IC50 (MDA-MB-231 [2]): 3.1 µM
IC50 (HT-29 [3]): 4 µM
inhibition in vivo at 4 mg/kg (Mus musculus [4]): 17.4%

COc1ccc2c(c1)c(CC(=O)O)c(C)n2C(=O)c1ccc(Cl)cc1
inhibition [14]: 56%

CCCCCN/C(=N/C#N)N1CCC(=C2c3ccc(Cl)cc3CCc3cccnc32)CC1
IC50 (MCF7 [1]): 3.5 µM
IC50 (MDA-MB-231 [2]): 1.7 µM
IC50 (HT-29 [3]): 4.4 µM
inhibition in vivo at 4 mg/kg (Mus musculus [4]): 13%

N#C/N=C(/NCCc1ccccc1)N1CCC(=C2c3ccc(Cl)cc3CCc3cccnc32)CC1
IC50 (MCF7 [1]): 2.3 µM
IC50 (MDA-MB-231 [2]): 2.6 µM
IC50 (HT-29 [3]): 3.2 µM
inhibition in vivo at 4 mg/kg (Mus musculus [4]): 13%

COc1ccc(CCN/C(=N/C#N)N2CCC(=C3c4ccc(Cl)cc4CCc4cccnc43)CC2)cc1OC
IC50 (MCF7 [1]): 7.1 µM
IC50 (MDA-MB-231 [2]): 18.2 µM
IC50 (HT-29 [3]): 5.7 µM
inhibition in vivo at 4 mg/kg (Mus musculus [4]): 21.7%

CC(N/C(=N/C#N)N1CCC(=C2c3ccc(Cl)cc3CCc3cccnc32)CC1)c1ccccc1 (centres undefined)
IC50 (MCF7 [1]): 4 µM
IC50 (MDA-MB-231 [2]): 6.9 µM
IC50 (HT-29 [3]): 3.7 µM
inhibition in vivo at 4 mg/kg (Mus musculus [4]): 26.1%
inhibition [14]: 4.9%
